Literature values as cited in patent US20060166941A1, “Treatment and/or prevention of non-viral epithelial damage” (Epistem Limited, priority 2003, published 2006).

Tested on: Na+/Pi cotransport across renal cortical brush border membrane
Conditions: Hoppe et al. 1988; cited from earlier work

O=C(O)C(Cl)(Br)P(=O)(O)O (stereo not drawn) [alpha-Cl-alpha-Br-phosphonoacetate]
inhibitory activity relative to phosphonoformic acid: threefold greater inhibitory activity than phosphonoformic acid
